EC50 and selectivity data for ten molecules are collected here from ChEMBL document CHEMBL1145783, “Development of an orexin-2 receptor selective agonist, [Ala(11), D-Leu(15)]orexin-B” (Bioorg Med Chem Lett, 2003).

Experiment [1] concerns the target T1, Orexin/Hypocretin receptor type 1 (Homo sapiens) (UniProt O43613).
T1 sequence (whole entry): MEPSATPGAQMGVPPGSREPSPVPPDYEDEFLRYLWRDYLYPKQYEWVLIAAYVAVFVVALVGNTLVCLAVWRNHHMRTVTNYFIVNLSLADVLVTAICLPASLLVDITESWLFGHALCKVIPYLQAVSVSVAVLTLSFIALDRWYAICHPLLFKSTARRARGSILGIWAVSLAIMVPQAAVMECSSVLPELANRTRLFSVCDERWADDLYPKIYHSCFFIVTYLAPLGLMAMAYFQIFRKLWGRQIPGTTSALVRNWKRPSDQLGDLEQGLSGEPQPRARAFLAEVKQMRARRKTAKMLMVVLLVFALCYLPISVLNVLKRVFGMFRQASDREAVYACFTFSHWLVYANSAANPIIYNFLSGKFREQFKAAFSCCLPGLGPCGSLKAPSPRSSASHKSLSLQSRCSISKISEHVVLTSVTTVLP
The experiment is described as follows: Agonist activity against human orexin 1 receptor; EC50; nM. The class given is functional.

Experiment [2] deals with T2, Orexin receptor type 2 (Homo sapiens) (UniProt O43614).
T2 sequence (whole entry): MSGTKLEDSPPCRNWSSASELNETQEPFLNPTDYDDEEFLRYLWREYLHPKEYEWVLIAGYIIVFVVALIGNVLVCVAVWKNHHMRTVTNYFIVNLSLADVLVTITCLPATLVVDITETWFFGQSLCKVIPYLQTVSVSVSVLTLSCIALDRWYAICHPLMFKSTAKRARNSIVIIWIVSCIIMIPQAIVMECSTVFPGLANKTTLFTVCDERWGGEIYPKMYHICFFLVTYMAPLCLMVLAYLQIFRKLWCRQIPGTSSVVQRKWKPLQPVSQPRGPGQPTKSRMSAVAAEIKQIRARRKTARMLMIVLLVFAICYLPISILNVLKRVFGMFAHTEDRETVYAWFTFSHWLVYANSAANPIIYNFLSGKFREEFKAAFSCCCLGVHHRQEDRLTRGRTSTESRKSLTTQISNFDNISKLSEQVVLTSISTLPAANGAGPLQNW
Nature of the experiment: (§1) Agonist activity against human orexin 2 receptor; EC50; nM. It is filed as functional.

Experiment [3] is described as follows: (§2) Agonist selectivity for orexin receptor 1 versus orexin receptor 2. It is filed as functional, Homo sapiens.
The species entered for experiment [4] is Homo sapiens. The experiment is described as §2. It is filed as functional.
Experiment [5] has as its target T3, Orexin receptor type 2 (Homo sapiens, UniProt O43614).
T3 sequence (O43614 whole entry): T2 sequence (whole entry)
The experiment is described as §1. It is filed as functional.

Take `CC[C@H](C)[C@H](NC(=O)[C@H](CC(C)C)NC(=O)[C@@H](NC(=O)[C@@H](N)CCSC)[C@@H](C)O)C(=O)NCC(=O)N[C@@H](C)C(=O)N[C@@H](C)C(=O)N[C@@H](Cc1c[nH]cn1)C(=O)N[C@@H](CC(N)=O)C(=O)NCC(=O)N[C@@H](CO)C(=O)N[C@@H](C)C(=O)N[C@@H](CCC(N)=O)C(=O)N[C@@H](CC(C)C)C(=O)N[C@@H](CC(C)C)C(=O)N[C@@H](CCCN=C(N)N)C(=O)N[C@@H](CCC(N)=O)C(=O)N[C@@H](CC(C)C)C(=O)N[C@@H](CCCN=C(N)N)C(=O)NCC(=O)N[C@@H](CCC(N)=O)C(=O)N[C@@H](CC(C)C)C(=O)NCC(=O)N1CCC[C@H]1C(=O)N1CCC[C@H]1C(=O)NCC(=O)N[C@@H](CO)C(=O)N[C@@H](CCCN=C(N)N)C(N)=O` [OREXIN B]: the values for the EC50 in experiment [1] and in experiment [2] were 0.83 nM and 0.081 nM, respectively. The selectivity in experiment [3] and in experiment [4] was 10 throughout.

As to `CC[C@H](C)[C@H](NC(=O)[C@H](CC(C)C)NC(=O)[C@@H](NC(=O)[C@@H](N)CCSC)[C@@H](C)O)C(=O)NCC(=O)N[C@@H](C)C(=O)N[C@@H](C)C(=O)N[C@@H](Cc1c[nH]cn1)C(=O)N[C@@H](CC(N)=O)C(=O)NCC(=O)N[C@@H](CO)C(=O)N[C@@H](C)C(=O)N[C@@H](CCC(N)=O)C(=O)N[C@H](CC(C)C)C(=O)N[C@@H](CC(C)C)C(=O)N[C@@H](CCCN=C(N)N)C(=O)N[C@@H](CCC(N)=O)C(=O)N[C@@H](C)C(=O)N[C@@H](CCCN=C(N)N)C(=O)NCC(=O)N[C@@H](CCC(N)=O)C(=O)N[C@@H](CC(C)C)C(=O)NCC(=O)N1CCC[C@H]1C(=O)N1CCC[C@H]1C(=O)NCC(=O)N[C@@H](CO)C(=O)N[C@@H](CCCN=C(N)N)C(N)=O`, the EC50 in experiment [1] came to 52 nM; in experiment [2], 0.13 nM. Moreover, in experiment [4], the selectivity came out at 400. Take `CC[C@H](C)[C@H](NC(=O)[C@H](CC(C)C)NC(=O)[C@@H](NC(=O)[C@@H](N)CCSC)[C@@H](C)O)C(=O)NCC(=O)N[C@@H](C)C(=O)N[C@@H](C)C(=O)N[C@@H](Cc1c[nH]cn1)C(=O)N[C@@H](CC(N)=O)C(=O)NCC(=O)N[C@@H](CO)C(=O)N[C@@H](C)C(=O)N[C@@H](CCC(N)=O)C(=O)N[C@@H](CC(C)C)C(=O)N[C@H](CC(C)C)C(=O)N[C@@H](CCCN=C(N)N)C(=O)N[C@@H](CCC(N)=O)C(=O)N[C@@H](C)C(=O)N[C@@H](CCCN=C(N)N)C(=O)NCC(=O)N[C@@H](CCC(N)=O)C(=O)N[C@@H](CC(C)C)C(=O)NCC(=O)N1CCC[C@H]1C(=O)N1CCC[C@H]1C(=O)NCC(=O)N[C@@H](CO)C(=O)N[C@@H](CCCN=C(N)N)C(N)=O`: the EC50 in experiment [1] amounted to 270 nM; in experiment [2], 1.9 nM. Also, the selectivity in experiment [4] turned out to be 140. On to `CC[C@H](C)[C@H](NC(=O)[C@H](CC(C)C)NC(=O)[C@@H](NC(=O)[C@@H](N)CCSC)[C@@H](C)O)C(=O)NCC(=O)N[C@@H](C)C(=O)N[C@@H](C)C(=O)N[C@@H](Cc1cnc[nH]1)C(=O)N[C@@H](CC(N)=O)C(=O)NCC(=O)N[C@@H](CO)C(=O)N[C@@H](C)C(=O)N[C@@H](CCC(N)=O)C(=O)N[C@@H](CC(C)C)C(=O)N[C@@H](CC(C)C)C(=O)N[C@@H](CCCN=C(N)N)C(=O)N[C@@H](CCC(N)=O)C(=O)N[C@@H](C)C(=O)N[C@@H](CCCN=C(N)N)C(=O)NCC(=O)N[C@@H](CCC(N)=O)C(=O)N[C@@H](CC(C)C)C(=O)NCC(=O)N1CCC[C@H]1C(=O)N1CCC[C@H]1C(=O)NCC(=O)N[C@@H](CO)C(=O)N[C@@H](CCCN=C(N)N)C(N)=O`, for which the EC50 in experiment [5] was determined as 0.066 nM. H-MTLIGAAHNGSAQLLRQLRGQLGPAGSR-NH2 registered an EC50 in experiment [5] of 0.23 nM. `CC[C@H](C)[C@H](NC(=O)[C@H](CC(C)C)NC(=O)[C@@H](NC(=O)[C@@H](N)CCSC)[C@@H](C)O)C(=O)NCC(=O)N[C@@H](C)C(=O)N[C@@H](C)C(=O)N[C@H](Cc1cnc[nH]1)C(=O)N[C@@H](CC(N)=O)C(=O)NCC(=O)N[C@@H](CO)C(=O)N[C@@H](C)C(=O)N[C@@H](CCC(N)=O)C(=O)N[C@@H](CC(C)C)C(=O)N[C@@H](CC(C)C)C(=O)N[C@@H](CCCN=C(N)N)C(=O)N[C@@H](CCC(N)=O)C(=O)N[C@@H](CC(C)C)C(=O)N[C@@H](CCCN=C(N)N)C(=O)NCC(=O)N[C@@H](CCC(N)=O)C(=O)N[C@@H](CC(C)C)C(=O)NCC(=O)N1CCC[C@H]1C(=O)N1CCC[C@H]1C(=O)NCC(=O)N[C@@H](CO)C(=O)N[C@@H](CCCN=C(N)N)C(N)=O`: in experiment [5], a half-maximal response (EC50) required 1 nM. On the same count and under the same terms, as for `CC[C@H](C)[C@H](NC(=O)[C@H](CC(C)C)NC(=O)[C@@H](NC(=O)[C@@H](N)CCSC)[C@@H](C)O)C(=O)NCC(=O)N[C@@H](C)C(=O)N[C@@H](C)C(=O)N[C@@H](Cc1c[nH]cn1)C(=O)N[C@@H](CC(N)=O)C(=O)NCC(=O)N[C@@H](CO)C(=O)N[C@@H](C)C(=O)N[C@@H](CCC(N)=O)C(=O)N[C@H](CC(C)C)C(=O)N[C@@H](CC(C)C)C(=O)N[C@@H](CCCN=C(N)N)C(=O)N[C@@H](CCC(N)=O)C(=O)N[C@@H](CC(C)C)C(=O)N[C@@H](CCCN=C(N)N)C(=O)NCC(=O)N[C@@H](CCC(N)=O)C(=O)N[C@@H](CC(C)C)C(=O)NCC(=O)N1CCC[C@H]1C(=O)N1CCC[C@H]1C(=O)NCC(=O)N[C@@H](CO)C(=O)N[C@@H](CCCN=C(N)N)C(N)=O`, the figure is 0.052 nM. Regarding `CC[C@H](C)[C@H](NC(=O)[C@H](CC(C)C)NC(=O)[C@@H](NC(=O)[C@@H](N)CCSC)[C@@H](C)O)C(=O)NCC(=O)N[C@@H](C)C(=O)N[C@@H](C)C(=O)N[C@@H](Cc1cnc[nH]1)C(=O)N[C@@H](CC(N)=O)C(=O)NCC(=O)N[C@@H](CO)C(=O)N[C@@H](C)C(=O)N[C@@H](CCC(N)=O)C(=O)N[C@@H](CC(C)C)C(=O)N[C@@H](CC(C)C)C(=O)N[C@@H](CCCN=C(N)N)C(=O)N[C@@H](CCC(N)=O)C(=O)N[C@@H](CC(C)C)C(=O)N[C@@H](CCCN=C(N)N)C(=O)N[C@H](C)C(=O)N[C@@H](CCC(N)=O)C(=O)N[C@@H](CC(C)C)C(=O)NCC(=O)N1CCC[C@H]1C(=O)N1CCC[C@H]1C(=O)NCC(=O)N[C@@H](CO)C(=O)N[C@@H](CCCN=C(N)N)C(N)=O`, the response in experiment [5] was half-maximal at 0.13 nM (EC50). The same measure, in the same setting: as for H-MTLIGAAANGSAQLLRQLRGQLGPPGSR-NH2, the figure is 0.72 nM; as for H-MTLIGAAHNGSAQLLAQLRGQLGPPGSR-NH2, 0.13 nM.

In general, EC50 refers to the concentration giving half of the maximal effect. Low readings indicate a more potent agent, high ones a less potent agent.
